Target: T1, HMG-CoA reductase (Rattus norvegicus, UniProt P51639)
T1 sequence (P51639 1-887): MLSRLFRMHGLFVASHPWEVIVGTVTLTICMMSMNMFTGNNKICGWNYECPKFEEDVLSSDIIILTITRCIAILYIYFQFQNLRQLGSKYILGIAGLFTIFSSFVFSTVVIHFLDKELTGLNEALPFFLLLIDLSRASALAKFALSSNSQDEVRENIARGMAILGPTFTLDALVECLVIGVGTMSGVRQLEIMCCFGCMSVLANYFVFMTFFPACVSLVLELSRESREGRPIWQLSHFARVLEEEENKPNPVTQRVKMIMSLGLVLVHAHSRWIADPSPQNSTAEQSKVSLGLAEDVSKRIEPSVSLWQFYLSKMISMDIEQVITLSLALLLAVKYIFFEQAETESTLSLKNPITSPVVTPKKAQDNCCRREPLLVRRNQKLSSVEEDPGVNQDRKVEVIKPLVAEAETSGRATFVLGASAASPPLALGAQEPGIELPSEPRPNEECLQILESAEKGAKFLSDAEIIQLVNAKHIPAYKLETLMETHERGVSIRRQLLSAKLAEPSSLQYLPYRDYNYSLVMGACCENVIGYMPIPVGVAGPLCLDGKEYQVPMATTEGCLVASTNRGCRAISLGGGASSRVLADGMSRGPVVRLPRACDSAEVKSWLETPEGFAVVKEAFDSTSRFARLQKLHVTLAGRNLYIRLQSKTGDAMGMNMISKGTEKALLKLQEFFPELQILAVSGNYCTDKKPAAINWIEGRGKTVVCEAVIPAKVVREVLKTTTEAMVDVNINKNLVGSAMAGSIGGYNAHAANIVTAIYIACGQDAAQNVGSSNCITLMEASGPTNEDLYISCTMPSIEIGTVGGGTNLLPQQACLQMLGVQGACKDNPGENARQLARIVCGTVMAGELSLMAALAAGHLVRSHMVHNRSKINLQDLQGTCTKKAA
Assay: HMG-CoA reductase inhibitory activity (rat liver microsome)
Format: biochemical, rat (Sprague-Dawley)
Conditions: [3-14C]HMG-CoA, 37° C., 30 minutes

Row | Compound | IC50 [nM]
1 | CC(C)c1oc2cccc(-c3ccc(F)cc3)c2c1/C=C/[C@@H](O)C[C@@H](O)CC(=O)O | 740
2 | Cc1ccc(C(C)C)c2c(/C=C/[C@@H](O)C[C@@H](O)CC(=O)O)c(-c3ccc(F)cc3)oc12 (relative stereo) | 270
3 | Cc1cc(-c2ccc3occ(C(C)C)c3c2/C=C/[C@@H](O)C[C@@H](O)CC(=O)O)ccc1F (relative stereo) | 32
4 | Cn1nnnc1C(/C=C/[C@@H](O)C[C@@H](O)CC(=O)O)=C(\c1ccc(F)cc1)c1cc2ccccc2o1 (relative stereo) | 90
5 | Cn1nnnc1C(/C=C/[C@@H](O)C[C@@H](O)CC(=O)O)=C(/c1ccc(F)cc1)c1cc2ccccc2o1 (relative stereo) | 90
6 | CC(C)c1cccc2c(-c3ccc(F)cc3)c(/C=C/[C@@H](O)C[C@@H](O)CC(=O)O)oc12 (relative stereo) [Ia-2, Sodium (3R*,5S*)-(E)-7-[3-(4-fluorophenyl)-7-isopropylbenzofuran-2-yl]-3,5-dihydroxy-6-heptenate] | 900
7 | CC(C)c1c(/C=C/[C@@H](O)C[C@@H](O)CC(=O)O)oc2c(-c3ccc(F)cc3)cccc12 (relative stereo) [Ia-5, Sodium (3R*,5S*)-(E)-7-[3-isopropyl-7-(4-fluorophenylbenzofuran-2-yl]-3,5-dihydroxy-6-heptenate] | 110
8 | Cc1cc(-c2c(CC[C@@H](O)C[C@@H](O)CC(=O)O)oc3c(C(C)C)cccc23)ccc1F (relative stereo) [Ia-11] | 220
9 | CC(=O)N(C)c1ccc(-c2ccc(F)cc2)c2c(/C=C/[C@@H](O)C[C@@H](O)CC(=O)O)c(C(C)C)oc12 (relative stereo) [Ia-14, Sodium (3R*,5S*)-(E)-7-[7-(N-acetyl-N-methylamino)-4-(4-fluorophenyl)-2-isopropyl-3-yl]-3,5-dihydroxy-6-heptenate] | 20
10 | CNc1ccc(-c2ccc(F)cc2)c2c(/C=C/[C@@H](O)C[C@@H](O)CC(=O)O)c(C(C)C)oc12 (relative stereo) [Ia-15, Sodium (3R*,5S*)-(E)-7-[4-(4-fluorophenyl)-2-isopropyl-7-methylamino-3-yl]-3,5-dihydroxy-6-heptenate] | 63

— patent publication US5110825A, “Benzofuran derivative” (Shionogi & Co., Ltd., priority 1989, dated 1992)
